Square brackets hold non-standard residues; d marks the D form. Peptide text beside a SMILES is read from it. Hpg = N[C@H](C(=O)O)c1ccc(O)cc1
Legend:
[1] = tested on: diaphragm tissue from fat-fed rats; experiment: Pyruvate oxidation by diaphragm tissue from fat-fed rats in vitro (14C from labelled pyruvate into CO2); parameters: species or system rat; details: diaphragm tissue from rats fed on a high fat diet
Method: Representative compounds of the formula (II) have been tested for their ability to increase the oxidation of glucose and/or pyruvate as follows:
Diaphragm tissue is obtained from rats fed on a high fat diet similar to `Diet B` described by Zaragoza and Felber [Horm.Metab. Res., 2, 323 (1970)]. Pyruvate oxidation by such tissue is assessed by measurement of the rate of incorporation of carbon-14 from carbon-14-labelled pyruvate into carbon dioxide in vitro, as described by Bringolf [Eur. J. Biochem., 26, 360 (1972)]. The rate of pyruvate oxidation is depressed by 50%-75% compared with that by diaphragm tissue from rats fed on a normal diet. When the compounds of the formula (II) are added to the medium, they are found to stimulate pyruvate oxidation by diaphragm tissue from fat-fed rats in a dose dependent manner.

[2] = tested on: pyruvate dehydrogenase enzyme; experiment: Proportion of active form of pyruvate dehydrogenase (PDHa/PDHt) in hearts of fat-fed rats after treatment; format: in vivo; details: fat-fed rat heart, after 11/2 hours
Method: The ability of compounds of formula (II) to increase the proportion of the active form of the pyruvate dehydrogenase enzyme has been measured in the following test:
Rats fed on a high fat diet as in the previous test, are treated either with placebo or with the compound of formula (II) by subcutaneous or intravenous injection or by oral administration. After 11/2 hours the rat hearts are removed and homogenized under conditions which minimize changes in the proportion of the pyruvate dehydrogenase enzyme (PDHt) which is present in the active form, as described by Whitehouse and Randle [Biochem. J., 134, 651 (1973)]. The total amount of the enzyme present (PDHt) and the amount which is present in the active form (PDHa) are assessed by a method similar to that described by Taylor et al. [J. Biol. Chem., 248, 73 (1973)]. The fat-feeding process is found to depress the ratio PDHa/PDHt from a normal value of about 0.7 to a value in the range from 0.05 to 0.2. Treatment of fat-fed rats with the compounds of formula (II) either parenterally or orally, increases this ratio in a dose-dependent manner.

Structure (SMILES)	% Stimulation (pyruvate oxidation) ([1]; Concentration 0.25 mM)	PDHa/PDHt ratio, compound ([2]; Dose 1.2 mmoles/kg p.o.)	% Stimulation (pyruvate oxidation) ([1]; Concentration 2 mM)	PDHa/PDHt ratio, compound ([2]; Dose 0.6 mmoles/kg p.o.)	PDHa/PDHt ratio, compound ([2]; Dose 0.6 mmoles/kg s.c.)	PDHa/PDHt ratio, compound ([2]; Dose 1.2 mmoles/kg s.c.)
Br.COC(=O)[C@@H](NC(=O)[C@@H](N)c1ccc(O)cc1)c1ccc(O)cc1 [Example 1, L,L-Methyl N-[2-(4-hydroxyphenyl)glycyl]-2-(4-hydroxyphenyl)glycinate hydrobromide] (H-[Hpg]-[Hpg]-OMe)	23%	1.00	–	–	–	–
Br.Br.N[C@H](C(=O)N[C@H](C(=O)O)c1ccc(O)cc1)c1ccc(O)cc1.N[C@H](C(=O)N[C@H](C(=O)O)c1ccc(O)cc1)c1ccc(O)cc1.O [Example 3, L,L-N-[2-(4-hydroxyphenyl)glycyl]-2-(4-hydroxyphenyl)glycine hydrobromide hemihydrate] (H-[Hpg]-[Hpg]-OH)	39%	0.75	–	–	–	–
Br.COC(=O)[C@@H](NC(=O)[C@H](C)N)c1ccc(O)cc1 [Example 7, L,L-Methyl N-alanyl-2-(4-hydroxyphenyl)glycinate hydrobromide] (H-Ala-[Hpg]-OMe)	–	–	61%	–	–	–
Br.C[C@H](N)C(=O)N[C@H](C(=O)O)c1ccc(O)cc1 [Example 8, L,L-N-Alanyl-2-(4-hydroxyphenyl)glycine hydrobromide] (H-Ala-[Hpg]-OH)	–	–	23%	0.56	0.77	–
Br.CC[C@H](C)[C@H](N)C(=O)N[C@H](C(=O)OC)c1ccc(O)cc1.O [Example 9, L,L-Methyl N-isoleucyl-2-(4-hydroxyphenyl)glycinate hydrobromide monohydrate] (H-Ile-[Hpg]-OMe)	–	0.24	35%	–	–	0.48
Br.CC[C@H](C)[C@H](N)C(=O)N[C@H](C(=O)O)c1ccc(O)cc1 [Example 10, L,L-N-isoleucyl-2-(4-hydroxyphenyl)glycine hydrobromide] (H-Ile-[Hpg]-OH)	–	–	10%	0.72	0.86	–
